From PubChem BioAssay AID330 (DTP/NCI, 2004) come the findings set out here.

The test system of this assay is P388 leukemia ip, CD2F1 mice, survival T/C. As to the kind of experiment: NCI In Vivo Anticancer Drug Screen. Data for tumor model P388 Leukemia (intraperitoneal) in CD2F1 (CDF1) mice. The conditions noted are these: endpoint: median survival time, higher = longer survival. A digest of the protocol: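 Mice carrying the transplanted tumor received test compound or vehicle. Survival was recorded in each group, and the value is the treated-group measurement divided by that of the vehicle-treated control group.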

Where [1] appears, read: dose: 50.0 mg/kg/injection, schedule: Q01DX009 (ip), vehicle: saline with Tween-80.
The mark [2] stands for this setting: dose: 100.0 mg/kg/injection, schedule: Q01DX009 (ip), vehicle: saline with Tween-80.
The mark [3] stands for this setting: dose: 200.0 mg/kg/injection, schedule: Q01DX009 (ip), vehicle: saline with Tween-80.
Where [4] appears, read: dose: 12.5 mg/kg/injection, schedule: Q01DX009 (ip), vehicle: Klucel (hydroxypropylcellulose) (HPC).
Where [5] appears, read: dose: 25.0 mg/kg/injection, schedule: Q01DX009 (ip), vehicle: Klucel (hydroxypropylcellulose) (HPC).
Setting [6] is: dose: 50.0 mg/kg/injection, schedule: Q01DX009 (ip), vehicle: Klucel (hydroxypropylcellulose) (HPC).
[7] abbreviates: dose: 100.0 mg/kg/injection, schedule: Q01DX009 (ip), vehicle: Klucel (hydroxypropylcellulose) (HPC).
Where [8] appears, read: dose: 200.0 mg/kg/injection, schedule: Q01DX009 (ip), vehicle: Klucel (hydroxypropylcellulose) (HPC).
The mark [9] stands for this setting: dose: 50.0 mg/kg/injection, schedule: Q01DX009 (ip), vehicle: saline.
The mark [10] stands for this setting: dose: 100.0 mg/kg/injection, schedule: Q01DX001 (ip), vehicle: saline with Tween-80.
Where [11] appears, read: dose: 200.0 mg/kg/injection, schedule: Q01DX001 (ip), vehicle: saline with Tween-80.
Setting [12] is: dose: 60.0 mg/kg/injection, schedule: Q01DX005 (ip), vehicle: saline with Tween-80.
Where [13] appears, read: dose: 120.0 mg/kg/injection, schedule: Q01DX005 (ip), vehicle: saline with Tween-80.
The mark [14] stands for this setting: dose: 240.0 mg/kg/injection, schedule: Q01DX005 (ip), vehicle: saline with Tween-80.
The mark [15] stands for this setting: dose: 100.0 mg/kg/injection, schedule: Q01DX009 (ip), vehicle: saline.
The mark [16] stands for this setting: dose: 200.0 mg/kg/injection, schedule: Q01DX009 (ip), vehicle: saline.
Setting [17] is: dose: 6.25 mg/kg/injection, schedule: Q01DX009 (ip), vehicle: saline.

Values joined by “and” are separate entries in the source; they are usually repeats but may differ in a detail not shown here. Equal entries are not always repeated. Toxic doses and inconclusive results are not listed.

Consider `O=S(=O)(O)c1cccc(/C(=N\Nc2ccccn2)c2ccccn2)c1`, for which the T/C was 100 % of control under setting [1], 102 % of control under setting [2] and 100 % of control under setting [3].

Take `CN(C)c1ccc(C=NCCCN2CCN(CCCN=Cc3ccc(N(C)C)cc3)CC2)cc1`: the T/C under setting [4] is 93 % of control; the T/C under setting [5] is 99 % of control; the T/C under setting [6] was 104 % of control; the T/C under setting [7] is 112 % of control; the T/C under setting [8] is 105 % of control.

Consider `O=C(O)CS(=O)(=O)CC(=O)O`, for which, under setting [9], the T/C was 95 % of control.

`O=C(c1ccccc1)c1ccc(NC(=O)C(F)(F)F)cc1`: the T/C runs as follows: under setting [1], 88 % of control; under setting [2], 86 % of control; under setting [3], 99 % of control.

Take `CCCCOP(O)(=S)OCCCC.[Sm]`: the T/C runs as follows: under setting [10], 92 % of control; under setting [11], 116 % of control.

As for `S=C(Nc1cc(Cl)c(Cl)cc1Cl)SCc1ccccc1`, the T/C by setting is: (dose: 50.0 mg/kg/injection, schedule: Q01DX009 (ip), vehicle: suspension in saline) 93 % of control; (dose: 100.0 mg/kg/injection, schedule: Q01DX009 (ip), vehicle: suspension in saline) 93 % of control.

`O=C1CCC2C(C3SCCCS3)=CCN12` (configuration not stated): the T/C by setting is: under setting [12], 97 % of control; under setting [13], 95 % of control; under setting [14], 101 % of control.

For the compound `C=C(CN1CCOCC1)C(=O)c1ccccc1`, the T/C runs as follows: (dose: 1.89 mg/kg/injection, schedule: Q01DX005 (ip), vehicle: saline) 105 % of control; (dose: 3.75 mg/kg/injection, schedule: Q01DX005 (ip), vehicle: saline) 112 % of control; (dose: 7.5 mg/kg/injection, schedule: Q01DX005 (ip), vehicle: saline) 100 % of control and 105 % of control.

As for `CCOC(C)OCCCI` (configuration not stated), the T/C under setting [12] is 105 % of control, the T/C under setting [13] is 101 % of control and the T/C under setting [14] is 105 % of control.

Turning to `CCc1ccccc1N1CCN(C(=O)c2cc(OC)c(OC)c(OC)c2)CC1`, the T/C runs as follows: under setting [4], 95 % of control; (dose: 12.5 mg/kg/injection, schedule: Q01DX009 (ip), vehicle: saline) 100 % of control and 120 % of control; under setting [5], 104 % of control; (dose: 25.0 mg/kg/injection, schedule: Q01DX009 (ip), vehicle: saline) 102 % of control and 91 % of control; (dose: 44.0 mg/kg/injection, schedule: Q01DX009 (ip), vehicle: saline with Tween-80) 120 % of control; under setting [6], 113 % of control. Moreover, the T/C reads like this: under setting [9], 102 % of control and 93 % of control; (dose: 66.0 mg/kg/injection, schedule: Q01DX009 (ip), vehicle: saline with Tween-80) 115 % of control; (dose: 75.0 mg/kg/injection, schedule: Q04DX003 (ip), vehicle: saline with Tween-80) 109 % of control; under setting [2], 115 % of control; under setting [15], 90 % of control and 93 % of control; (dose: 100.0 mg/kg/injection, schedule: Q04DX003 (ip), vehicle: saline with Tween-80) 105 % of control. Also, the T/C is, setting by setting: (dose: 150.0 mg/kg/injection, schedule: Q01DX009 (ip), vehicle: saline with Tween-80) 150 % of control; (dose: 150.0 mg/kg/injection, schedule: Q04DX003 (ip), vehicle: saline with Tween-80) 114 % of control; under setting [8], 92 % of control; under setting [16], 88 % of control; (dose: 225.0 mg/kg/injection, schedule: Q04DX003 (ip), vehicle: saline with Tween-80) 121 % of control; (dose: 300.0 mg/kg/injection, schedule: Q04DX003 (ip), vehicle: saline with Tween-80) 100 % of control. Further, the T/C (dose: 400.0 mg/kg/injection, schedule: Q01DX009 (ip), vehicle: saline) was 95 % of control.

`O=C1c2ccccc2C2N1CCC1CCc3ccccc3N12` (configuration not stated): the T/C runs as follows: under setting [1], 92 % of control; under setting [2], 91 % of control; under setting [3], 89 % of control.

Turning to `NP(=O)(Oc1c2occc2cc2ccc(=O)oc12)N(CCCl)CCCl` (configuration not stated), the T/C is, setting by setting: (dose: 50.0 mg/kg/injection, schedule: Q01DX005 (ip), vehicle: saline with Tween-80) 111 % of control; (dose: 100.0 mg/kg/injection, schedule: Q01DX005 (ip), vehicle: saline with Tween-80) 99 % of control; (dose: 200.0 mg/kg/injection, schedule: Q01DX005 (ip), vehicle: saline with Tween-80) 114 % of control.

Regarding `CCN(CC)CCC#N`, the T/C reads like this: under setting [9], 94 % of control; under setting [15], 87 % of control; under setting [16], 88 % of control.

`CC(=O)OCC1OC(n2cc(CBr)nn2)C(OC(C)=O)C(OC(C)=O)C1OC(C)=O` (configuration not stated): the T/C reads like this: (dose: 6.25 mg/kg/injection, schedule: Q01DX009 (ip), vehicle: distilled water + Tween-80) 102 % of control and 94 % of control; under setting [17], 93 % of control; (dose: 12.5 mg/kg/injection, schedule: Q01DX009 (ip), vehicle: distilled water + Tween-80) 106 % of control and 115 % of control; (dose: 25.0 mg/kg/injection, schedule: Q01DX009 (ip), vehicle: distilled water + Tween-80) 115 % of control; (dose: 50.0 mg/kg/injection, schedule: Q01DX009 (ip), vehicle: distilled water + Tween-80) 118 % of control; under setting [9], 163 % of control. The T/C by setting is: (dose: 50.0 mg/kg/injection, schedule: Q04DX003 (ip), vehicle: saline) 101 % of control; (dose: 100.0 mg/kg/injection, schedule: Q01DX009 (ip), vehicle: distilled water + Tween-80) 90 % of control; (dose: 100.0 mg/kg/injection, schedule: Q04DX003 (ip), vehicle: saline) 99 % of control.

Consider `Cc1cccc(/C=N/Nc2cc(C)nc3ccccc23)n1`, for which the T/C was 109 % of control under setting [6], 118 % of control under setting [7] and 117 % of control under setting [8].

As for `CCC(C)NC1(N(C)C)N=C(N(C)C)N=C(N(C)C)O1` (configuration not stated), the T/C (dose: 50.0 mg/kg/injection, schedule: Q01DX005 (ip), vehicle: saline) was 101 % of control and the T/C (dose: 100.0 mg/kg/injection, schedule: Q01DX005 (ip), vehicle: saline) was 99 % of control.

As to `O=C1CSC(=O)N1c1cccc(Cl)c1`, the T/C is, setting by setting: (dose: 1.56 mg/kg/injection, schedule: Q01DX009 (ip), vehicle: saline) 99 % of control and 97 % of control; (dose: 3.12 mg/kg/injection, schedule: Q01DX009 (ip), vehicle: saline) 100 % of control and 103 % of control; under setting [17], 90 % of control and 96 % of control; under setting [1], 106 % of control; under setting [9], 89 % of control.

Take `COc1cc(C(O)(CCN2CCCCC2)c2ccc3c(c2)OCO3)cc(OC)c1OC` (configuration not stated): the T/C reads like this: (dose: 50.0 mg/kg/injection, schedule: Q01DX005 (ip), vehicle: saline + Tween-80 + alcohol) 94 % of control; (dose: 100.0 mg/kg/injection, schedule: Q01DX005 (ip), vehicle: saline + Tween-80 + alcohol) 100 % of control; (dose: 200.0 mg/kg/injection, schedule: Q01DX005 (ip), vehicle: saline + Tween-80 + alcohol) 93 % of control.

With `Cc1ccccc1N1C(=O)OC(C)C1=O` (configuration not stated), the T/C under setting [10] was 97 % of control; the T/C under setting [11] was 109 % of control; the T/C (dose: 400.0 mg/kg/injection, schedule: Q01DX001 (ip), vehicle: saline with Tween-80) was 94 % of control.

Turning to `COc1cc2c(cc1OC)C(CCN)=NCC2`, the T/C is, setting by setting: (dose: 25.0 mg/kg/injection, schedule: Q01DX009 (ip), vehicle: saline sonified) 95 % of control; (dose: 50.0 mg/kg/injection, schedule: Q01DX009 (ip), vehicle: saline sonified) 100 % of control; (dose: 100.0 mg/kg/injection, schedule: Q01DX009 (ip), vehicle: saline sonified) 100 % of control.

For `O=C1OCC/C1=C1/NCCNC1=O`, the T/C under setting [1] was 91 % of control, the T/C under setting [2] is 116 % of control and the T/C under setting [3] was 109 % of control.

For `CCCCCCCCCCCCCCCCOc1ccc(S(=O)(=O)c2ccccc2)cc1[N+](=O)[O-]`, the T/C is 100 % of control (dose: 25.0 mg/kg/injection, schedule: Q04DX003 (ip), vehicle: saline sonified); 100 % of control (dose: 50.0 mg/kg/injection, schedule: Q04DX003 (ip), vehicle: saline sonified); 90 % of control (dose: 100.0 mg/kg/injection, schedule: Q04DX003 (ip), vehicle: saline sonified).
